Results as given in patent publication US5624924A, “Quinobenzothiazine antineoplastic agents” (priority 1994, dated 1997).
Values joined by “and” are separate entries in the source; they are usually repeats but may differ in a detail not shown here. Equal entries are not always repeated. Structures can show the parent of a compound that is named as a salt.

Columns and labels:
Aqueous solubility = format: physicochemical; conditions: water
From the text: The effect of peptidyl substitution on the solubility of the compounds of the invention was examined by dissolving samples thereof in water.

[1] = tested on: C-26 colon adenocarcinoma; experiment: In vivo activity against C-26 implanted subcutaneously (Example 44); parameters: species or system mouse
Procedure: (§1) The title compound of Example 37 above was tested against solid tumors in mice, using 1,3-bis(2-chloroethyl)-1-nitrosourea (BCNU) as a positive control. The tumor lines were M5076, an ovarian sarcoma implanted intraperitoneally (IP), and C-26, a colon adenocarcinoma, implanted intraperitoneally (IP) and subcutaneously (SC) in separate trials.
(§2) All drugs were administered in 5% aqueous dextrose or other suitable diluent. Drug efficacy was determined by prolonged survival times of the test animals or reduced tumor mass as compared to negative controls. Test groups consisted of 10 mice. Control groups consisted of 20 mice. Animals were of one sex and of similar weight. Prior to testing, the tumor cell lines were propagated in BALB/cj mice. Tumor implants were aliquots of a donor pool brei,
For the C-26 SC trial, the tumor was implanted SC into mice on day 0. The test compound was administered four times a day IP from day 1 to day 9 for a total of nine days. BCNU was administered four times a day on days 1, 5, and 9. The mean tumor masses were determined on day 11 and day 21, and the experiment terminated on day 60. The mean tumor mass (MTM) inhibition value of % MTM(T/C) was calculated, which value represents the ratio of treated to control group MTM's expressed as a percentage.

[2] = tested on: C-26 colon adenocarcinoma; experiment: In vivo activity against C-26 implanted intraperitoneally (Example 44); parameters: species or system mouse
Procedure: as §1, §2
(§3) In the IP trials, the mean survival time (MST) of the groups of mice was determined, not counting animals surviving at the conclusion of the trial, and the mean lifespan comparison value of % MST(T/C) calculated, which value represents the ratio of treated to control group MST's expressed as a percentage.
For C-26 colon adenocarcinoma, the tumor was implanted into CD2 F1 mice, IP and SC in separate trials. For the C-26 IP trial, the tumor was implanted IP on day 0. The test compound were administered four times a day IP from day 1 to day 9 for a total of nine days. BCNU was administered four times a day on days 1, 5 and 9.

M5076 ovarian sarcoma = experiment: In vivo activity against M5076 implanted intraperitoneally (Example 44); parameters: species or system mouse
Procedure: as §1, §2, §3
For M5076 ovarian sarcoma, the tumor was implanted IP into BDF1 mice on day 0. The test compound was administered four times a day IP from day 1 to day 9 for a total of nine days.

P388 ascitic leukemia = experiment: In vivo activity against systemic tumor P388; parameters: species or system mouse; conditions: 20 mg/kg IP once daily, five days; positive control
Procedure: Prior to testing, P388 was propagated intraperitoneally in female DBA2 mice. The ascitic tumors were intraperitoneally injected in female B6 D2 F1 mice at a concentration of 10^6 cells per mouse. The mice were treated with antiumor agents administered once daily for five consecutive days, with the antineoplastic 5-fluorouracil used as a positive control.
All drugs were administered intraperitoneally in 5% aqueous dextrose or other suitable diluent. Drug efficacy was evaluated based on prolongation of mean survival time (MST). Improvement of MST was calculated as % MST(T/C), the percent ratio of mean survival times of test (T) versus control (C) mice. Compounds having % MST(T/C) values greater than 125 are considered to have significant activity. The antitumor activity of the two compounds in the P388 systemic leukemia model is illustrated in Table 3 below.

[3] = tested on: HT-29 human colon cancer cell line; experiment: In vitro cytotoxicity (MTT), HT-29; format: cell-based; conditions: HT-29, 72 h, read-out: In Vitro Cytotoxicity (IC50), HT-29, Table 2, ADR: average of two tests
Procedure: (§4) Metabolic activity was measured by the cells' ability to reduce the tetrazolium dye, 3-(4,5-dimethylthiazol-2-yl)-2,5-diphenyltetrazolium bromide (MTT), to a quantifiable colored formasan derivative. Surviving cells reduce the MTT dye. The inhibitory concentrations of killing 50% of the cells (IC50 s) were calculated. Testing was in accord with the following protocol:
(§5) Test compounds and a reference antineoplastic agent, ADRIAMYCIN (doxorubicin hydrochloride), were dissolved in dimethyl sulfoxide (DMSO) and diluted, first with Earle's Balanced Salt Solution, followed by culture medium, to twice the highest concentration of the compound to be tested. From this concentrated stock, two-fold serial dilutions were prepared in 96-well microtiter trays, each well containing twice the desired final concentration of the compound. Each concentration was tested in triplicate and compared to triplicate drug-free controls.
(§6) The cells were grown in the same medium used for diluting the compounds. Adherent cells were harvested by trypsinization according to the following procedure:
(§7) After harvesting by trypsinization, viable cell counts were determined and cell density was adjusted to 25,000 cells/mL. Inoculum (0.1 mL) was then added to each well for a final concentration of 2,500 cells per well. Addition of the inoculum was used to dilute the test compounds to the desired concentration.
(§8) Microtiter trays were incubated for three days at 36° C. in a humidified atmosphere containing 5% carbon dioxide.
(§9) After three days, 20 microliters of 5 mg/mL MTT in phosphate-buffered solution were added to each well of the microtiter trays. The microtiter trays were then returned to the incubator for two to four hours to allow the surviving cells to reduce the dye. After this incubation, both the medium and the unreduced dye were removed by aspiration. DMSO was added to each well to dissolve the water-insoluble, colored end product of the dye reduction for spectrophotometric measurement at 570 nm.
(§10) The results obtained which clearly show the cytotoxicity of the compounds of Examples 5, 6, 7 and 8 against […] tumor cell lines A549, HCT-8, HT-29 and P388-D1, are illustrated in Table 1. (A549 is a human lung cancer cell line; HCT-8 is a human colon cancer cell line; HT-29 is a human colon cancer cell line; and P388-D1 is a mouse leukemia cell line.)

B16F10 mouse melanoma = experiment: In vitro cytotoxicity (MTT), B16F10; format: cell-based; conditions: B16-F10, 72 h, read-out: In Vitro Cytotoxicity (IC50)
Procedure: as §4, §5, §6, §7, §8, §9
(§11) Compounds from Examples 4, 6, 8, 9 and 10 were additionally tested against human and murine tumor cell lines A549, HT-29, P388-D1, P388, P388-ADR(0.0), P388-ADR(0.1) and B16F109. (P388 is a mouse leukemia cell line similar to P388-D1, but animal-passaged; P388-ADR (0.0) is an ADRIAMYCIN-resistant variant of P388, the inoculum of which is grown in drug-free medium; P388-ADR (0.1) is an ADRIAMYCIN-resistant variant of P388, the inoculum of which is grown in medium with 0.1 mcg.ml ADRIAMYCIN; and B16F10 is a mouse melanoma.) The results are presented in Table 2; as shown in the table, the compounds of the present invention are effective cytotoxic agents even against the ADRIAMYCIN-resistant cell line P388-ADR.

[4] = tested on: P388-ADR(0.0), ADRIAMYCIN-resistant variant of P388; experiment: In vitro cytotoxicity (MTT), P388-ADR(0.0); format: cell-based; conditions: Mus musculus, 72 h, inoculum grown in drug-free medium, Table 2
Procedure: as §4, §5, §6, §7, §8, §9, §11

[5] = tested on: P388 mouse leukemia cell line; experiment: In vitro cytotoxicity (MTT), P388; format: cell-based; conditions: P388, 72 h, read-out: In Vitro Cytotoxicity (IC50)
Procedure: as §4, §5, §6, §7, §8, §9, §11

[6] = tested on: A549 human lung cancer cell line; experiment: In vitro cytotoxicity (MTT), A549; format: cell-based; conditions: A549, 72 h, read-out: In Vitro Cytotoxicity (IC50), A549, Table 2, ADR: average of two tests
Procedure: as §4, §5, §6, §7, §8, §9, §10

[7] = day 11, 10 mg/kg, compound 37 days 1-9, BCNU days 1, 5, 9
[8] = day 21, 10 mg/kg, compound 37 days 1-9, BCNU days 1, 5, 9
[9] = 10 mg/kg, compound 37 days 1-9, BCNU days 1, 5, 9

C[C@H](N)C(=O)N[C@@H](C)C(=O)NC1CCN(c2c(F)cc3c(=O)c(C(=O)O)cn4c3c2Oc2ccccc2-4)C1 (stereo partly drawn) [Example 37, 1-(3-Alanylalanylaminopyrrolidin-1-yl)-2-fluoro-4-oxo-4H-quino[2,3,4-i,j][1,4]benzoxazine-5-carboxylic acid hydrochloride]
solubility (Aqueous solubility): 28.2 mg/mL
% MTM(T/C) ([1]; day 11, 2.5 mg/kg): 97%
MTM ([1]; day 11, 2.5 mg/kg): 302 mg
% MTM(T/C) ([1]; day 11, 5 mg/kg): 66%
MTM ([1]; day 11, 5 mg/kg): 205 mg
% MTM(T/C) [1, 7]: 24%
MTM [1, 7]: 74 mg
% MTM(T/C) ([1]; day 11, 20 mg/kg): 0%
MTM ([1]; day 11, 20 mg/kg): 0 mg
% MTM(T/C) ([1]; day 21, 2.5 mg/kg): 79%
MTM ([1]; day 21, 2.5 mg/kg): 2617 mg
% MTM(T/C) ([1]; day 21, 5 mg/kg): 75%
MTM ([1]; day 21, 5 mg/kg): 2462 mg
% MTM(T/C) [1, 8]: 41%
MTM [1, 8]: 1336 mg
% MTM(T/C) ([1]; day 21, 20 mg/kg): 5%
MTM ([1]; day 21, 20 mg/kg): 169 mg
activity against tumor implanted subcutaneously ([1]; days 11 and 21, in words): significantly active
% MST(T/C) ([2]; 2.5 mg/kg IP days 1-9): 147%
MST ([2]; 2.5 mg/kg IP days 1-9): 30.3
% MST(T/C) ([2]; 5 mg/kg IP days 1-9): 174%
MST ([2]; 5 mg/kg IP days 1-9): 36.0
% MST(T/C) [2, 9]: 195%
MST [2, 9]: 40.2
test animals that survived the trial ([2]; 20 mg/kg (footnote a)): Three of ten test animals survived the trial
% MST(T/C) ([2]; 20 mg/kg IP days 1-9): 197%
MST ([2]; 20 mg/kg IP days 1-9): 40.7
improvement in survival time ([2]; C-26 IP, in words): significant improvement in survival time
test animals that survived the trial (M5076 ovarian sarcoma; 12.5 mg/kg (footnote b)): One of ten test animals survived the trial
% MST(T/C) (M5076 ovarian sarcoma; 12.5 mg/kg IP days 1-9): 215%
MST (M5076 ovarian sarcoma; 12.5 mg/kg IP days 1-9): 44.6
Toxicity due to the test compound (M5076 ovarian sarcoma; 25 mg/kg (footnote a)): Toxicity due to the test compound noted
% MST(T/C) (M5076 ovarian sarcoma; 25 mg/kg IP days 1-9): 45%
MST (M5076 ovarian sarcoma; 25 mg/kg IP days 1-9): 9.3
Toxicity due to the test compound (M5076 ovarian sarcoma; 50 mg/kg (footnote a)): Toxicity due to the test compound noted
% MST(T/C) (M5076 ovarian sarcoma; 50 mg/kg IP days 1-9): 21%
MST (M5076 ovarian sarcoma; 50 mg/kg IP days 1-9): 4.4
Toxicity due to the test compound (M5076 ovarian sarcoma; 100 mg/kg (footnote a)): Toxicity due to the test compound noted
% MST(T/C) (M5076 ovarian sarcoma; 100 mg/kg IP days 1-9): 15%
MST (M5076 ovarian sarcoma; 100 mg/kg IP days 1-9): 3.2
improvement in survival time (M5076 ovarian sarcoma; M5076 IP, in words): significant improvement in survival time

O=c1[nH]cc(F)c(=O)[nH]1 [5-Fluorouracil, 5-fluorouracil, reference compound]
% MST(T/C) (P388 ascitic leukemia): 160% and 186.67%

CCC[C@H](N)C(=O)N[C@@H](C)C(=O)NC1CCN(c2c(F)cc3c(=O)c(C(=O)O)cn4c3c2Oc2ccccc2-4)C1 (stereo partly drawn) [Example 40, 1-(3-Norvalylalanylaminopyrrolidin-1-yl)-2-fluoro-4-oxo-4H-quino[2,3,4-i,j][1,4]benzoxazine-5-carboxylic acid hydrochloride]
solubility (Aqueous solubility): > 47.8 mg/mL

CCC[C@H](NC(=O)[C@@H](N)CCC)C(=O)NC1CCN(c2c(F)cc3c(=O)c(C(=O)O)cn4c3c2Oc2ccccc2-4)C1 (stereo partly drawn) [Example 38, 1-(3-Norvalylnorvalylaminopyrrolidin-1-yl)-2-fluoro-4-oxo-4H-quino[2,3,4-i,j][1,4]benzoxazine-5-carboxylic acid hydrochloride]
solubility (Aqueous solubility): 11.1 mg/mL

Cc1ccc2c(c1)Oc1c(N3CC[C@H](N)C3)c(F)cc3c(=O)c(C(=O)O)cn-2c13 [Example 18, 1-((3S)-3-aminopyrrolidin-1-yl)-2-fluoro-9-methyl-4-oxo-4H-quino[2,3,4-i,j][1,4]benzoxazine-5-carboxylic acid hydrochloride]
IC50 [3]: 0.04 µg/mL
IC50 (B16F10 mouse melanoma): 0.024 µg/mL
IC50 [4]: 0.13 µg/mL
IC50 [5]: 0.047 µg/mL
IC50 [6]: 0.11 µg/mL

CCC[C@H](N)C(=O)NC1CCN(c2c(F)cc3c(=O)c(C(=O)O)cn4c3c2Oc2cc(C)ccc2-4)C1 (stereo partly drawn) [Example 10, 1-(3-norvalylaminopyrrolidin-1-yl)-2-fluoro-9-methyl-4-oxo-4H-quino[2,3,4-i,j][1,4]benzoxazine-5-carboxylic acid hydrochloride]
IC50 [3]: 0.0875 µg/mL
IC50 (B16F10 mouse melanoma): 0.0573 µg/mL
IC50 [4]: 0.447 µg/mL
IC50 [5]: 0.108 µg/mL
IC50 [6]: 0.187 µg/mL
